System: 324938-238-R-J1-PDC complex spheroid growth, % test/control
Assay: Anticancer human tumor 324938-238-R-J1-PDC patient-derived bladder carcinoma cell line growth inhibition [AhR]
Conditions: for IC50: curve of first compound; for viability, T/C: stronger effect = lower value
Summary of the method: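 Agents were dosed in half-log steps down from roughly clinical Cmax, or from 10 microM where Cmax was unknown, alone and with AhR antagonists. Read-out: percent test/control growth of tumor spheroids containing HUVEC and MSC stromal cells.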
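Also: spheroids exposed to agents for seven days before viability read.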

Work on `CC(C)c1c(-c2ccccc2)nc2c(C#N)c[nH]n2c1=O` + Cc1cncc(-c2nc(NCCc3c[nH]c4ccccc34)c3ncn(C(C)C)c3n2)c1 yielded an IC50 (second compound 0.1 µM) greater than 10 µM, an IC50 (second compound 0.316 µM) greater than 10 µM and an IC50 (second compound 1 µM) greater than 10 µM. The IC50 (second compound 3.16 µM) was greater than 10 µM, the IC50 (second compound 10 µM) was less than 0.0316 µM and the viability, T/C (second compound 0.1 µM, first compound 0.0316 µM) was 127%. It also gave a viability, T/C (second compound 0.1 µM, first compound 0.1 µM) of 85.5%, a viability, T/C (second compound 0.1 µM, first compound 0.316 µM) of 95.3% and a viability, T/C (second compound 0.1 µM, first compound 1 µM) of 63.9%. The viability, T/C (second compound 0.1 µM, first compound 3.16 µM) was 69.6%, the viability, T/C (second compound 0.1 µM, first compound 10 µM) was 146% and the viability, T/C (second compound 0.316 µM, first compound 0.0316 µM) was 124%. For the same compound, the viability, T/C (second compound 0.316 µM, first compound 0.1 µM) was 129%, the viability, T/C (second compound 0.316 µM, first compound 0.316 µM) was 89.1% and the viability, T/C (second compound 0.316 µM, first compound 1 µM) was 102%. For the same compound, the viability, T/C (second compound 0.316 µM, first compound 3.16 µM) was 113%, the viability, T/C (second compound 0.316 µM, first compound 10 µM) was 96.4% and the viability, T/C (second compound 1 µM, first compound 0.0316 µM) was 119%. For the same compound, the viability, T/C (second compound 1 µM, first compound 0.1 µM) was 85.3%, the viability, T/C (second compound 1 µM, first compound 0.316 µM) was 83.5% and the viability, T/C (second compound 1 µM, first compound 1 µM) was 90.8%. It also gave a viability, T/C (second compound 1 µM, first compound 3.16 µM) of 130%, a viability, T/C (second compound 1 µM, first compound 10 µM) of 102% and a viability, T/C (second compound 3.16 µM, first compound 0.0316 µM) of 101%. It also gave a viability, T/C (second compound 3.16 µM, first compound 0.1 µM) of 68.8%, a viability, T/C (second compound 3.16 µM, first compound 0.316 µM) of 76.8% and a viability, T/C (second compound 3.16 µM, first compound 1 µM) of 63.8%. The viability, T/C (second compound 3.16 µM, first compound 3.16 µM) was 75.8%, the viability, T/C (second compound 3.16 µM, first compound 10 µM) was 102% and the viability, T/C (second compound 10 µM, first compound 0.0316 µM) was 2.26%. It also gave a viability, T/C (second compound 10 µM, first compound 0.1 µM) of 3.22%, a viability, T/C (second compound 10 µM, first compound 0.316 µM) of 2.43% and a viability, T/C (second compound 10 µM, first compound 1 µM) of 3.77%. For the same compound, the viability, T/C (second compound 10 µM, first compound 3.16 µM) was 3.8% and the viability, T/C (second compound 10 µM, first compound 10 µM) was 1.68%.

Reference: PubChem BioAssay AID1918995 (Molecular Pharmacology Branch, DTP, NCI, 2023)
